According to patent US20100040711A1, “ZINC-CARNOSINE -BASED TREATMENT FOR NON ULCER (FUNCTIONAL ) DYSPEPSIA & IRRITABLE BOWEL SYNDROME IN HUMANS AND OTHER ANIMALS” (priority 2008, published 2010):

Assays:
post-infectious IBS = settings: recent study, Dunlap et al. 2003; cited from earlier work
[1] = test system: functional dyspepsia or irritable bowel syndrome; assay: Veterinary case reports: dogs diagnosed with functional dyspepsia or irritable bowel syndrome given zinc-carnosine; format: in vivo; settings: dog, 30 mg/day
Excerpt: Ellie, a three year old, sixteen pound West Highland Terrier presented to vet with visible discomfort, loose stools and intermittent diarrhea. […] The diagnosis of functional dyspepsia or irritable bowel syndrome made.
Katelyn, a six year old, fourteen pound Boston Terrier presented to vet with visible discomfort, diarrhea, vomiting and inappetence. […] Blood tests indicated no abnormalities and a stool samples indicated the dog was parasite free. The diagnosis of functional dyspepsia or irritable bowel syndrome made.

[2] = test system: functional dyspepsia or irritable bowel syndrome; assay: Veterinary case report: cat diagnosed with functional dyspepsia or irritable bowel syndrome given zinc-carnosine; format: in vivo; settings: 15 mg BID
Excerpt: A five year old, eight pound Siamese cat presented to vet with severe diarrhea, severe visible discomfort, inappetence and losing weight. […] Blood tests indicated no abnormalities and a stool samples indicated the cat was parasite free. The diagnosis of functional dyspepsia or irritable bowel syndrome made.

[3] = based on current evidence; cited from earlier work
[4] = test system: human umbilical vein endothelial cells; settings: cited from earlier work
[5] = test system: human foreskin fibroblast cells; settings: cited from earlier work
[6] = test system: human MCT3-E1 cells (osteoblasts); settings: cited from earlier work
water immersion stress = settings: cited from earlier work
[7] = test system: HCl-ethanol gastric damage; settings: cited from earlier work
TNBS model of colitis = settings: cited from earlier work
gastric ulcer = settings: clinical trials, versus placebo; cited from earlier work

Row | Compound | efficacy for treating post-infectious IBS (post-infectious IBS) | improvement of conditions (discomfort, diarrhea, vomiting, inappetence) ([1]; course during treatment) | symptoms at check up ([1]; four week check up) | improvement of condition (discomfort, loose stools, diarrhea) ([1]; two week and four week follow-up visits) | symptoms at check up ([2]; four week check up) | improvement of conditions (diarrhea, discomfort, inappetence, weight loss) ([2]; within seven days) | side effects [3] | stimulation of growth (proliferation) [4] | stimulation of growth (proliferation) [5] | stimulation of growth (proliferation) [6] | effect in animal model of gut ulceration and gross inflammation (water immersion stress) | effect in animal model of gut ulceration and gross inflammation [7] | effect in animal model of gut ulceration and gross inflammation (TNBS model of colitis) | effect in treatment of gastric ulcer (gastric ulcer)
1 | C[C@]12C=CC(=O)C=C1CC[C@@H]1[C@@H]2[C@@H](O)C[C@@]2(C)[C@H]1CC[C@]2(O)C(=O)CO [predinisolone] | ineffective |  |  |  |  |  |  |  |  |  |  |  |  | 
2 | Zinc-Carnosine |  | conditions improved on a daily basis | No further symptoms | significant improvement | No further symptoms | conditions improved significantly | little or no side effects | able to stimulate growth (proliferation) | able to stimulate growth (proliferation) | able to stimulate growth (proliferation) | beneficial effects | beneficial effects | beneficial effects | beneficial effect above placebo
